Laboratory results reported in PMC9786170, “The Pharmacological Potential of Novel Melittin Variants from the Honeybee and Solitary Bees against Inflammation and Cancer” (Toxins, 2022).
“Also recorded” adds a separate entry of the source.

Assays:
HEK293T cells = assay: Cell viability assay (WST-8/Orangu formazan) in HEK293T cells; assay type: cell-based, human; details: 25 µg/mL, 24 h, WST-8 formazan absorbance, n = 4
Description: (§1) Figure 1 Toxicity characterization of cells treated with melittin peptides. (A,B) For the viability assay, RAW264.7 (A) or HEK293T (B) cells were treated with bee venom compounds in the indicated concentrations for 24 h. Cells were incubated with WST-8 and the formed formazan was detected by absorbance measurements. (C) For the proliferation assay, HMEC-1 cells were grown in low density and treated after 24 h with the indicated peptide (25 µg/mL) for 72 h. Cells were stained with crystal violet solution. The amount of DNA-bound crystal violet was detected by absorbance measurements. (D) The number of sub-diploidic cells was determined by staining with propidium iodide (PI) and quantified to assess apoptosis of HUVECs. Data are expressed as mean ± SEM. (A) n = 3, (B) n = 4, (C) n = 2–3, (D) n = 2. * p ≤ 0.05 versus control.
For assessing the cytotoxicity of all peptides, various cell types and assays were utilized. […] After incubation, absorbance was measured at a wavelength of 450 nm with a reference at 650 nm at an EnSpire 2300 Multimode Plate Reader (Perkin Elmer, Lübeck, Germany). To calculate cell viability, the absorbance of vehicle-treated cells was set to 100%, and the melittin derivates-treated samples were correlated to them.

RAW264.7 cells = assay: NO inhibition assay (LPS-stimulated, Griess); assay type: cell-based, murine; details: RAW264.7, peptide 30 min, then 100 ng/mL LPS 24 h
Description: Figure 4 Influence of melittin derivates on inflammation-associated cell functions. (A,B) For the NO induction assay (A), RAW264.7 cells were treated with melittin peptides in the indicated concentrations for 24 h. For the NO inhibition assay (B), RAW264.7 cells were pretreated with melittin peptides in the indicated concentrations for 30 min and then stimulated with 100 ng/mL LPS for 24 h. NO was detected in the supernatant using the Griess method. […] THP-1 cell adhesion under static conditions. HUVECs were grown to confluence, preincubated with bee venoms for 30 min, and activated with TNF (10 ng/mL) for 24 h. For the leukocyte adhesion assay, untreated THP-1 cells were stained with CellTracker Green and were allowed to adhere to the treated HUVECs for 5 min. The adhesion of leukocytes onto Ecs was quantified by fluorescence measurements for all cell adhesion experiments. Data are expressed as means ± SEM, (A,B) n = 3, (C) n = 2. * p ≤ 0.05 vs. TNF (positive) control.
2 × 10^4 RAW264.7 macrophages/well were plated in a 96-well plate and cultured for 24 h at 37 °C. To investigate if the melittin peptides induce nitrogen oxide (NO) synthesis, the melittin peptides, control (DMSO), and positive control (100 ng/mL lipopolysaccharide (LPS)) were added. To evaluate the effect of melittin peptides on inhibiting NO synthesis, the cells were pre-incubated with peptides or control (DMSO) for 30 min before 100 ng/mL LPS were added. After 24 h supernatants were collected and stored at −80 °C.
NO was determined with the Griess method. Briefly, for the standard curve, different concentrations of sodium nitrite (0–50 µM) were prepared in the medium. A total of 80 µL cell supernatant or standard sample were added to a 96-well microplate and subsequently, 20 µL sulfanilamide solution (120 mg sulfanilamide in 30 mL 1 N hydrochloric acid) and 20 µL naphthylenediamine solution (180 mg N-(1-naphthyl)ethylenediamine dihydrochloride in 30 mL water) were added. After 15 min of incubation, the absorbance (540 nm) was measured with the EnSpire Plate Reader (PerkinElmer, Waltham, MA, USA). For the induction assay, the NO levels of the melittin peptides-treated samples were related to the DMSO-treated sample. For the inhibition assay, the NO levels of the melittin peptides-treated cells were correlated with the LPS-treated samples.

MDA-MB-231 cells = assay: Proliferation assay (crystal violet) in MDA-MB-231 cells; assay type: cell-based, human; details: n = 2; for anti-proliferative activity, 72 h: MDA-MB-231, 25 µg/mL, crystal violet
Description: Figure 5 Anti-proliferative and apoptotic effect of melittin derivates on the triple-negative breast cancer cell line MDA-MB-231. (A) For the proliferation assay, cells were grown in low density and were treated after 24 h with melittin peptides at a concentration of 25 µg/mL for 72 h. Cells were stained with crystal violet solution. The amount of DNA-bound crystal violet was detected by absorbance measurements. (B) Melt3, 4, and Xac4, which are non-toxic to healthy cells, were further used to test effects on proliferation at 24 h (left) and 48 h (right) at different concentrations. (C) The effects on apoptosis were detected by flow cytometry after 24 h (left), 48 h (middle), and 72 h (right) of treatment. The number of apoptotic cells was determined by staining with propidium iodide (PI). Data are expressed as mean ± SEM. n = 2, * p ≤ 0.05 versus control. Sts, staurosporin 1 µM.
HMECs (2000 cells/well) were seeded into collagen-coated 96-well plates and grown for 24 h. Then, they were treated with melittin peptides. Treated cells were cultured for 72 h, whereas untreated control cells, directly after 24 h, were fixed with a methanol-ethanol (2:1) solution and washed with PBS before they were stained using a crystal violet solution (20% methanol). Similarly, at the end of incubation time, cells treated with melittin peptides were fixed, stained, and unbound crystal violet was removed by washing with distilled water. Finally, cells were left to air dry, and DNA-bound crystal violet was dissolved using an acetic acid solution (20%, Sigma-Aldrich, Steinheim, Germany). Absorbance was measured at 590 nm using a plate reader (Infinite F200Pro, Tecan, Männedorf, Switzerland). The proliferation percentage was calculated by normalizing to the untreated control (24 h) and compared to the DMSO control (0.03%) of 72 h incubation. Similarly, MDA-MB-231 cells (6000 cells/well) were seeded into 96-well plates, and their proliferation ability under treatment conditions was tested as described above.

HMEC-1 cells = assay: Proliferation assay (crystal violet) in HMEC-1 cells; assay type: cell-based, human; details: HMEC-1, 25 µg/mL, 72 h, n = 2–3
Description: as §1
HMECs (2000 cells/well) were seeded into collagen-coated 96-well plates and grown for 24 h. Then, they were treated with melittin peptides. […] Absorbance was measured at 590 nm using a plate reader (Infinite F200Pro, Tecan, Männedorf, Switzerland). The proliferation percentage was calculated by normalizing to the untreated control (24 h) and compared to the DMSO control (0.03%) of 72 h incubation. […]

Row | Substance | cytotoxicity (cell viability) (HEK293T cells) | inhibition of LPS-induced NO synthesis (RAW264.7 cells; n = 3, listed as Melittin) | inhibition of LPS-induced NO synthesis (RAW264.7 cells; n = 3, listed as melittin) | anti-proliferative activity, 72 h (MDA-MB-231 cells) | proliferation (HMEC-1 cells) | inhibition of LPS-induced NO synthesis (RAW264.7 cells; n = 3) | proliferation at 24 h and 48 h, concentration range (MDA-MB-231 cells; MDA-MB-231, 24 h and 48 h, different concentrations, Melt4 effect at 10 and 25 µg/mL)
1 | melittin [Melt, reference compound] | showed cytotoxicity | prevent the LPS-induced NO release | prevented LPS-induced NO synthesis in a concentration-dependent manner | exhibited anti-proliferative activity | proliferation was hindered | – | –
2 | xylopin [Xac4] | showed cytotoxicity | – | – | exhibited anti-proliferative activity; also recorded: anti-proliferative effects on breast cancer cells | proliferation was augmented | prevented LPS-induced NO synthesis in a concentration-dependent manner; also recorded: reducing the inflammation-associated interaction of endothelial cells with leukocytes and NO synthesis | trend of decreased proliferation
